Test results taken from patent US9969719B2, “Substituted 2-hydrogen-pyrazole derivative serving as anticancer drug” (CHIA TAI TIANQING PHARMACEUTICAL GROUP CO., LTD., priority 2015, dated 2018).
Like-named read-outs stand apart in the source and are kept apart here.

What was measured:
CDK4/cyclin D1 = target: T1, CDK4/cyclin D1 (Homo sapiens, UniProt P11802); experiment: CDK4/cyclin D1 Lance Ultra enzyme assay; type: biochemical; settings: 350 μM ATP, 180 minutes
T1 construct: purchased Life Technologies
T1 sequence (P11802 whole entry): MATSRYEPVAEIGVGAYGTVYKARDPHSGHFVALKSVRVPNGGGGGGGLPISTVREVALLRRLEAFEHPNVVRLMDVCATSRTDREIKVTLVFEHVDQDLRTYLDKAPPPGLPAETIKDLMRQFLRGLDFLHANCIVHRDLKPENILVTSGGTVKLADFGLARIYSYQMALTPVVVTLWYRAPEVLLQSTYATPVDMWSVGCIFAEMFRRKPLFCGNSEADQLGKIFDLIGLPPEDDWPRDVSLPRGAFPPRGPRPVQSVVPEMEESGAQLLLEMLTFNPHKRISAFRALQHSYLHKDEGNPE
T1 sequence (P24385 whole entry partner): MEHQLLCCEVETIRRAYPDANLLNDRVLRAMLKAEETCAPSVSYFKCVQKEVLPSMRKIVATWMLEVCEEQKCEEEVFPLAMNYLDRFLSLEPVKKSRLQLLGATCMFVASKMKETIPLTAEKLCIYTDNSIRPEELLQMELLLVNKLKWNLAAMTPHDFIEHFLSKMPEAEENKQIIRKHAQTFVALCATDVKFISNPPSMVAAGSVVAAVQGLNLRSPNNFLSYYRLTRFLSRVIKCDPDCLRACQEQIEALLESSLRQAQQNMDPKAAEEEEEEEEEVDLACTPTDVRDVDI
Description: (§1) The experimental materials included CDK2/cyclin A, CDK4/cyclin D1, CDK6/cyclin D1 (Life Technologies); ULight-labeled polypeptide substrates, i.e., ULight-4E-BP1 and ULight-MBP (PerkinElmer); the europium-labeled antibody against anti-myelin basic protein and europium-labeled rabbit antibody (PerkinElmer); and Envision® Multilabel Plate Reader (PerkinElmer) used for signal detection.
(§2) The compounds to be tested were diluted three times so as to be at ten gradually varied concentrations.
(§3) The dilutions of the compounds were dissolved in enzyme buffer, respectively. The components of the buffer included 50 mM hydroxyethylpiperazine ethanesulfonic acid solution (pH 7.5), 1 mM ethylenediaminetetraacetic acid, 10 mM magnesium chloride, 0.01% Brij-35, and 2 mM dithiothreitol. After the reaction started, the OptiPlate 384-well plate was sealed with top heat-sealing film TopSeal-A and incubated at room temperature for 180 minutes. • The Enzyme Reaction System of CDK6/Cyclin D1
(§4) The stop buffer of the enzyme reaction was prepared by dissolving EDTA in a one-fold dilution of the assay buffer. The reaction was terminated at room temperature for 5 minutes. To each of the reaction systems of CDK2/cyclin A, CDK4/cyclin D1 and CDK6/cyclin D1 was added 5 μL assay mixture (provided with antibody the europium-labeled against anti-myelin basic protein and the europium-labeled rabbit antibody, respectively). They were incubated at room temperature for 60 minutes. The reaction signals were detected by the EnVision instrument according to the principle of time-resolved fluorescence resonance energy transfer.

CDK6/cyclin D1 = target: T2, CDK6/cyclin D1 (Homo sapiens, UniProt Q00534); experiment: CDK6/cyclin D1 Lance Ultra enzyme assay; type: biochemical; settings: 250 μM ATP, 180 minutes
T2 construct: purchased Life Technologies
T2 sequence (Q00534 whole entry): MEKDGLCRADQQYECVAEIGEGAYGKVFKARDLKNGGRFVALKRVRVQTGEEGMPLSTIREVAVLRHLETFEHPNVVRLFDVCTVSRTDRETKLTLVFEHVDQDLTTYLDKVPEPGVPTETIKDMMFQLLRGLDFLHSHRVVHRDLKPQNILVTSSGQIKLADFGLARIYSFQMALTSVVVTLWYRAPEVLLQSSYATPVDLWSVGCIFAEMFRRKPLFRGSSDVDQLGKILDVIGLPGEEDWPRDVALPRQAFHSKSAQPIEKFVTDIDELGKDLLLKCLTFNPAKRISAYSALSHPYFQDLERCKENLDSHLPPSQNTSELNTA
T2 sequence (P24385 whole entry partner): as the sequence (P24385 whole entry partner) above
Description: as §1, §2
as §3, with “minutes.” for “minutes. • The Enzyme Reaction System of CDK6/Cyclin D1”
as §4

CDK2/cyclin A = target: T3, CDK2/cyclin A (Homo sapiens, UniProt P24941); experiment: CDK2/cyclin A Lance Ultra enzyme assay; type: biochemical; settings: 25 μM ATP, 60 minutes
T3 construct: purchased Life Technologies
Description: as §1, §2
as §3, with “The gradient dilutions of” for “The dilutions of”, “temperature for 60 minutes. •” for “temperature for 180 minutes. •”, “System of CDK4/Cyclin D1” for “System of CDK6/Cyclin D1”
as §4

MCF-7 cells = experiment: MCF-7 cell proliferation (CellTiter-Glo, 6 days); type: cell-based, human; settings: for IC50: Homo sapiens, MCF7, proliferation, 6 days; for MCF-7/MDA-MB-436: ratio of the proliferation IC50 values
Description: EnVision® Multilabel Plate Reader (PerkinElmer) was used.
MCF-7 cells were inoculated in a black 384-well plate by adding 45 μL of the cell suspension (containing 200 of MCF-7 cells) to each of the wells. The plate was incubated overnight in a carbon dioxide incubator.
(§5) A duplicate well test was performed. The medium was added to the middle plate in an amount of 49 μL per well. The gradient dilutions of the compounds were transferred in an amount of 1 μL per well to the middle plate at the corresponding positions, and the mixture was mixed and transferred to the cell plate in an amount of 5 μL per well. The cell plate was incubated in a carbon dioxide incubator for 6 days. Promega CellTiter-Glo reagent was added to the cell plate in an amount of 25 μL per well. The cell plate was incubated at room temperature for 10 minutes to stabilize the luminescence signal. EnVision® Multilabel Plate Reader (PerkinElmer) was used for signal detection.

MDA-MB-436 cells = experiment: MDA-MB-436 cell proliferation (CellTiter-Glo); type: cell-based; settings: Homo sapiens
Description: RPMI 1640 medium, fetal bovine serum, penicillin/streptomycin were purchased from Promega (Madison, Wis.). The MCF-7 cell line and the MDA-MB-436 cell line were purchased from the European Collection of Authenticated Cell Cultures (ECACC). EnVision® Multilabel Plate Reader (PerkinElmer) was used.
as §5, with “The compounds to be tested were diluted three times using Bravo to the tenth concentration, i.e., diluted from 10 μM to 0.508 nM. A” for “A”
The IC50 values were obtained by curve fitting using four parameters (obtained from the 205 mode in XLFIT5, iDBS). Table 1 provides the inhibitory activities of the compounds of the invention against the proliferation of MCF-7 cells and MDA-MB-436 cells.

[1] = Study of brain permeability after oral administration; type: in vivo, SD rats
Description: SD rats were used as the test animals.
Twelve healthy 7- to 9-week-old adult male SD rats were purchased from Shanghai Slack Laboratory Animal Co., Ltd. A proper amount of the test compound was weighed to prepare a 0.5% methylcellulose suspension at 1 mg/mL. The rats received a single oral dose of 10 mg/kg. 0.5 h, 2 h, 8 h, and 24 hours after the administration, 3 rats were respectively killed, and their whole blood and brain tissues were collected. The plasma was prepared by centrifuging the whole blood (3000 g, 15 minutes, 4° C.). The samples of brain homogenate were prepared by mixing the brain tissues with a mixture of methanol and a phosphate buffer (methanol:phosphate buffer=1:2) as homogenate at a ratio of 5:1. The drug concentration of each sample was determined by LC/MS/MS, and AUC was calculated to evaluate the exposure.

[2] = system: human breast cancer cell line MCF-7; type: in vivo
Description: The in vivo pharmacodynamic study was carried out in human-based tumor cell line-derived xenografted (CDX) BALB/c nude mice, in which were subcutaneously implanted human breast cancer cell line MCF-7.
. All the cages, matts and water were disinfected before use. All the animals had free access to a standard certified commercial laboratory diet. A total of 100 mice were purchased from Shanghai BK Laboratory Animal Co., LTD for study. An estrogen tablet ([…], sustained release within 60 days) was subcutaneously implanted in the left next abdomen of each mice. After 3 days, the tumor cells (10×10^6 in 0.2 mL of phosphate buffer) were subcutaneously implanted in the right next abdomen of each mice for the tumor growth. The administration started when the average tumor volume reached about 150-200 mm^3. The test compounds were orally administered daily, the doses were shown as Table 5. The tumor volumes were measured with a two-dimensional caliper every three days, the volumes were expressed in cubic millimeters and calculated by the formula V=0.5a×b^2, wherein a and b were the major diameter and minor diameter of the tumor, respectively. Antitumor efficacy was determined by dividing an average increase of the tumor volumes of the animals treated with the compounds by an increase of the tumor volumes of the untreated animals.

[3] = Caco-2 cell bi-directional permeability assessment; settings: human, Caco-2, pH 7.4
Description: (§6) The standard experimental conditions were as follows: • Test concentration: 2 μM (DMSO≤1%); • Number of replication: n=2; • Direction: bi-directional transportation, including two directions, i.e., A→B and B→A; • Incubation time: single time point, 2 hours; • Transport buffer: HBSS, pH 7.4; • Incubation conditions: 37° C., 5% CO2.
(§7) After the incubation, sample solutions taken from the dosing wells and the receiving wells were immediately mixed with a cold acetonitrile solution containing the internal standard. Concentrations of the test compounds in all samples (including the initial dosing solutions, the supernatants of the dosing wells and the receiving solutions) were determined by a LC/MS/MS method. The apparent permeability coefficients, the efflux ratios and other parameters were calculated.

Caco-2 monolayer cells [4] = experiment: Caco-2 cell bi-directional permeability assessment
Description: as §6, §7

Caco-2 monolayer cells [5] = system: Caco-2 monolayer cells
Description: as §6, §7

in vitro = settings: human, Caco-2, pH 7.4
Description: as §6, §7

[6] = 10 mg/kg oral, time point 0.5 h
[7] = 50.0 mg/kg orally daily, 7th day
[8] = 50.0 mg/kg orally daily, 14th day
[9] = 50.0 mg/kg orally daily, 21st day
[10] = human, Caco-2, 2 h, 2 μM, pH 7.4

Row | SMILES | IC50 (MCF-7 cells) | MCF-7/MDA-MB-436 (MCF-7 cells) | IC50 (MDA-MB-436 cells) | Exposure in brain [1, 6] | Exposure in brain ([1]; 10 mg/kg oral, time point 2 h) | Exposure in brain ([1]; 10 mg/kg oral, time point 8 h) | Tomor volumes ([2]; 50.0 mg/kg orally daily, 0 day) | Tomor volumes [2, 7] | Tomor volumes [2, 8] | Tomor volumes [2, 9] | Papp A→B at 2 h, 2 μM [3] | Papp B→A at 2 h, 2 μM [3] | Classification Permeability (Caco-2 monolayer cells [4]; Caco-2) | other results
1 | CC(C)c1c2cc(-c3nc(Nc4ccc(N5CCN(CCC#N)CC5)cn4)ncc3F)ccc2nn1C [Example 7, 3-[4-[6-[[5-fluoro-4-(3-isopropyl-2-methyl-2H-indazol-5-yl)pyrimidin-2-yl]amino]-3-pyridyl]piperazin-1-yl]propanenitrile] | 37.2 nM | 31.1 | 1160 nM | 1564 nmol/kg | 2922 nmol/kg | 307 nmol/kg | 187 mm^3 | 271 mm^3 | 318 mm^3 | 350 mm^3 | 6.55 ×10⁻⁶ cm/s | 3.38 ×10⁻⁶ cm/s | High | IC50 (CDK4/cyclin D1): 1.82 nM; IC50 (CDK6/cyclin D1): 4.52 nM; IC50 (CDK2/cyclin A): 12 nM; selectivity in inhibiting the proliferation of estrogen receptor positive breast cancer cells (MCF-7/MDA-MB-436) (MCF-7 cells; versus LY2835219, in words): higher selectivity; inhibitory activities against the proliferation of MCF-7 cells compared with the reference compounds (MCF-7 cells; versus Palbociclib and LY2835219, in words): higher inhibitory activities; exposure in brain after 8 hours ([1]; 10 mg/kg oral, in words): significantly decreased; exposure in brain tissue compared with the reference compounds ([1]; rat, versus Palbociclib and LY2835219, in words, b797: 0.5 hour and 2 hour): higher exposure; antitumor activities in the CDX model of MCF-7 breast cancer ([2]; in words): significant antitumor activities; efflux ratio at 2 h, 2 μM [3]: 0.52; Classification Substrates of efflux transporters (Caco-2 monolayer cells [4]; Caco-2): Unlikely; permeability compared with the reference compounds (Caco-2 monolayer cells [4]; Caco-2, versus Palbociclib and LY2835219, in words): higher permeability
2 | CCN1CCN(Cc2ccc(Nc3ncc(F)c(-c4cc(F)c5nc(C)n(C(C)C)c5c4)n3)nc2)CC1 [LY2835219, Abemaciclib, reference compound] |  | 17.3 | 1030 nM | 62 nmol/kg | 525 nmol/kg | 774 nmol/kg | 187 mm^3 | 261 mm^3 | 315 mm^3 | 443 mm^3 | 2.69 ×10⁻⁶ cm/s | 6.34 ×10⁻⁶ cm/s | High | 
3 | CC(=O)c1c(C)c2cnc(Nc3ccc(N4CCNCC4)cn3)nc2n(C2CCCC2)c1=O [Palbociclib, reference compound] | 87 nM | 113 | 9840 nM | 80 nmol/kg | 329 nmol/kg | 184 nmol/kg |  |  |  |  |  |  |  | Tomor volumes ([2]; 45.0 mg/kg orally daily, 0 day): 187 mm^3; Tomor volumes ([2]; 45.0 mg/kg orally daily, 7th day): 264 mm^3; Tomor volumes ([2]; 45.0 mg/kg orally daily, 14th day): 387 mm^3; Tomor volumes ([2]; 45.0 mg/kg orally daily, 21st day): 633 mm^3; tolerability of high doses in the animals ([2]; mouse, in vivo): intolerable; Classification Permeability (Caco-2 monolayer cells [5]; Caco-2): Medium; Average apparent permeability coefficient A to B (Caco-2 monolayer cells [5]; [10]): 9.18 10^−6 cm/s; Average apparent permeability coefficient B to A (Caco-2 monolayer cells [5]; [10]): 7.51 10^−6 cm/s; Papp A→B at 2 h, 2 μM (in vitro): 0.85 ×10⁻⁶ cm/s; Papp B→A at 2 h, 2 μM (in vitro): 16.5 ×10⁻⁶ cm/s
